Columns and labels:
Assay type in all cases: cell-based, mouse
cleaved caspase 3 = assay: Caspase 3 cleavage by immunoblot; conditions: 48 hr; any pH condition for TCAP-1
Experimental: Detection of caspase 3 cleavage was determined at 48 hrs. The samples at each pH and control (see above) were lysed using total protein isolation lysis buffer (described above). An aliquot of 25 μl of each sample was combined with 25 μl of 2×20% sodium dodecyl sulphate (SDS) sample buffer and loaded onto a 4-10% HCL-Tris pre cast polyacrylamide gel (BioRad, Mississauga). The gel was run at 200 v for 35 min and proteins were electrotransfered to a Hybond-C nitrocellulose membrane (Amersham, Baie d'Urfé) for 75 min at 100 v. After transfer, the membrane was washed with 10 ml of PBS with 0.05% Tween 20 (PBST) for 5 min at room temperature (RT) and the membrane was incubated in 10 ml of PBST-milk for one hour at RT followed by 3 times for 5 min washes with 10 ml of PBST. The membrane was then incubated with cleaved caspase 3 primary antibody (Cell Signaling Technology, Beverly) at a titre of 1:500 in 6 ml of PBST-milk with gentle agitation overnight at 4° C. The membranes were washed 3 times for 5 min with 10 ml of PBST followed by membrane incubation with anti-rabbit horseradish peroxidase (HRP)-conjugated secondary antibody (Amersham, Baie d'Urfé) at 1:3000 in 6 ml of PBST-milk with gentle agitation for 1 hr at RT. […]

caspase 3 = assay: Caspase 3 colorimetric assay; conditions: pH 7.4; apoptotic control
Experimental: (§1) Caspase 8 and 3 colorimetric assays were performed on the N38 cells at all pH conditions. The assay was based on the detection of the chromophore pNA after cleavage from the labeled substrate IETD-pNA and DEVD-pNA for caspase 8 and 3, respectively. Comparison of the pNA absorbance from the suspected apoptotic sample was compared to the uninduced neutral pH sample. Caspase 8 and 3 were analysed using the Caspase-3 Colorimetric Activity Assay (Chemicon, Temecula USA) and Caspase-8 Colorimetric Activity Assay (Chemicon, Temecula USA). The cells from each pH treatment described previously at 24 and 48 hrs were removed using a cell scraper and centrifuged at 1500 rpm for 10 minutes. The cells were resuspended in 350 μl of chilled cell lysis buffer containing 500 μl PBS, 5 μl 1% Triton ×100 (Sigma, St. Louis), 25 μl proteinase inhibitor cocktail set III (VWR, Mississauga), 0.5 μM dithiothreitol (DTT) (Sigma, St. Louis) and 2.5 μl phenylmethylsulphonylfluoride (PMSF) diluted in 1 mL of methanol (EM Science, Gibbstown), then incubated on ice for 10 min and centrifuged for 5 minutes at 10,000 rpm. The supernatant, consisting of cytosolic extracts, was transferred to a new tube and a bicinchoninic acid (BCA) protein assay (Pierce, Rockford) was conducted to determine total protein concentration. The absorbance of each sample was measured on a SPECTRAmax Microplate spectrophotometer at 405 nm after an incubation period of 2 hours at 37° C. Changes in caspase 3 activity were determined by comparing the absorbance reading from the induced sample with the level of the uninduced control. Background readings from the buffer were subtracted from the reading of both the induced (pH 6.8, 8.0, 8.4) and uninduced (pH 7.4) samples before calculating changes in caspase 3 activity. The same was done for the detection of caspase 8. As a control, N38 cells were cultured with pH 7.4 DMEM and incubated for 4 days, apoptosis was then induced using 10 μM/ml etoposide and lysed according to the above protocol and used a control for all subsequent caspase 3 detection. All assays were performed with 4 replications.

caspase 8 = assay: Caspase 8 colorimetric assay; conditions: pH 7.4; apoptotic control
Experimental: as §1

COc1cc([C@@H]2c3cc4c(cc3[C@@H](O[C@@H]3O[C@@H]5CO[C@@H](C)O[C@H]5[C@H](O)[C@H]3O)[C@H]3COC(=O)[C@H]23)OCO4)cc(OC)c1O [Etoposide, etoposide, reference compound]
caspase 3 cleavage product (17/19 kDa) on western blot (cleaved caspase 3): clearly visible
increase in caspase-3 relative to vehicle-treated cells (caspase 3): 3.5 fold
increase in caspase 8 relative to vehicle-treated cells (caspase 8): greater than 3 fold

— patent US20080015147A1, “Method for inhibiting neuronal cell death” (priority 2006, published 2008)
